The values that follow come from PMC4409337, “Immucillins Impair Leishmania (L.) infantum chagasi and Leishmania (L.) amazonensis Multiplication In Vitro” (PLoS ONE, 2015).

The structures appear in SMILES notation. Read-outs that look alike come from different tables or passages of the source.

The target in series [1] is T1, Nucleoside hydrolase NH36 (Leishmania donovani, UniProt Q8WQX2).
T1 sequence (Q8WQX2 1-314): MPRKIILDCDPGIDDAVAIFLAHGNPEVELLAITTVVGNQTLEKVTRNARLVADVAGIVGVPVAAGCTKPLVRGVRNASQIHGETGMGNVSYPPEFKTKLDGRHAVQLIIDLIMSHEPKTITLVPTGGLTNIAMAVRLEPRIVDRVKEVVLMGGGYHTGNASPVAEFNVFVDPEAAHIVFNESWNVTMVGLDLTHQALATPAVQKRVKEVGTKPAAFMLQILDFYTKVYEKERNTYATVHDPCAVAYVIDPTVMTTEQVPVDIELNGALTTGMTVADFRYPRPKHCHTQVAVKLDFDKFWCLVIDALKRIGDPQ
Description: Ki determination: inhibition of NH36 activity by immucillins. It counts as biochemical, Leishmania (L.) donovani. The settings on record: 10 mM inosine as substrate, 0.5 nM NH36, pH 7.4, room temperature. Here is the method:
(§1) BL21DE3 E.coli were transformed with the synthetic plasmid pET 28b encoding the gene of NH36 of Leishmania (L.) donovani (EMBL, Genbank and DDJB data bases, access number AY007193) with a His6tag at the C-terminal. Expression was induced with 0.5 mM IPTG and overnight incubation at 20°C. Purification of NH36 was performed on a column of Ni-NTA Superflow resin (Qiagen, USA) eluted by a stepwise imidazole gradient and monitored by SDS-polyacrylamide gel electrophoresis and protein assay. The extinction coefficient of NH36 is 21.437 mM^-1 cm^-1 at 280 nm, as calculated with the ProtParam program from ExPASy, and was used to estimate protein concentration (http://ca.expasy.org/seqanalref/). The yield of NH36 after purification was 11.87 mg per Liter of bacterial growth culture. Non-specific His-proteins with weak interactions were eluted with 50–100 mM imidazole (S1 Fig). The purified NH36 started to elute with 150 mM imidazole. We used 250 mM of imidazol in elution buffer for purification of NH36.
The reaction mixtures contained 10 mM inosine as substrate, 50 mM Hepes (pH 7.4), 100 mM KCl, 5 mM DTT and 1 unit XOD. The hydrolysis of inosine to hypoxanthine and ribose was followed by continuous reading of optical absorbance at 293 nm, using variable concentrations of inhibitors in a CARY 300UV-visible spectrophotometer. Controls without enzyme and without inhibitors were included in all inhibition assays. The inhibition constant for each immucillin was obtained, using GraFit 5 (Erithacus Software), by fitting initial rates with variable inhibitor concentrations to the equation (vi/v0 = [S] / Km + [S] + Km[I] / Ki), where v i is the initial rate in the presence of the inhibitor, v 0 is the initial rate in the absence of the inhibitor, K m is the Michaelis constant for inosine, [S] and [I] are inosine and inhibitor concentrations, respectively, and Ki is the inhibition constant.

Series [2] relates to L. (L.) infantum chagasi promastigotes. As to the kind of experiment: In vitro growth of promastigotes in FBS supplemented Schneider's insect medium. It counts as cell-based, Leishmania (L.) infantum chagasi. From the text: The strain of Leishmania (L.) infantum chagasi MHOM/BR/1974/PP75 was obtained from the Leishmania Type Culture Collection (Fundacão Oswaldo Cruz, Rio de Janeiro, RJ, Brazil) and the strain of Leishmania (L.) amazonensis (MHOM/BR/1975/Josefa) was kindly given by Professor Rosâ[…] from Universidade Federal do Rio de Janeiro. Promastigotes were maintained by weekly transfers in screw-capped glass tubes containing Schneider's insect medium (Sigma Aldrich, MO, USA), pH 7.0, supplemented with 10% Fetal Bovine Serum (FBS) at 26°C. […] Log phase promastigotes of L. (L.) infantum chagasi and L. […] Promastigotes were recorded in a Neubauer chamber after 24, 48, 72 and 96 hours of incubation at 26°C. […] The concentration of adenosine in Schneider s insect serum supplemented medium was assessed by HPLC using a C-18 reverse-phase column as described.

In series [3] the test system is L. (L.) amazonensis promastigotes. Described as above. It counts as cell-based, Leishmania (L.) amazonensis. The settings on record: Leishmania amazonensis; for inhibition at 500 µM: read-out: percent inhibition on L. (L.) amazonensis replication; for IC50: read-out: IC50 (CI 95%) on L. (L.) amazonensis promastigotes in vitro growth. From the text:
The strain of Leishmania (L.) infantum chagasi MHOM/BR/1974/PP75 was obtained from the Leishmania Type Culture Collection (Fundacão Oswaldo Cruz, Rio de Janeiro, RJ, Brazil) and the strain of Leishmania (L.) amazonensis (MHOM/BR/1975/Josefa) was kindly given by Professor Rosâ[…] from Universidade Federal do Rio de Janeiro. Promastigotes were maintained by weekly transfers in screw-capped glass tubes containing Schneider's insect medium (Sigma Aldrich, MO, USA), pH 7.0, supplemented with 10% Fetal Bovine Serum (FBS) at 26°C. Stock solutions (20 mM) of immucillins IA […] prepared using Milli-Q purified water. Log phase promastigotes of L. (L.) infantum chagasi and L. […] Promastigotes were recorded in a Neubauer chamber after 24, 48, 72 and 96 hours of incubation at 26°C. […] We also assayed the possibility of reversing the inhibitory effect of IA in RPMI medium by the addition of adenosine to the culture medium. The concentration of adenosine in Schneider s insect serum supplemented medium was assessed by HPLC using a C-18 reverse-phase column as described.

Series [4] relates to L. (L.) infantum chagasi promastigotes. Description: Transmission electron microscopy of treated promastigotes. The settings on record: 10 μM, 72 h. It counts as cell-based, Leishmania (L.) infantum chagasi. From the text: The cells were washed with Milli Q water, dehydrated in increasing concentration of acetone and embedded in Epon (1: 1) (PolyBed 812). The ultrathin sections were obtained, contrasted with 5% uranyl acetate and lead citrate and observed under a Joel 1200 electron microscope.

Series [5] in a line: Macrophage viability and cytotoxicity (Trypan Blue). The settings on record: female, BALB/c, mouse. As to the method:
Alternatively, the immucillins were added at 0, 24 and 48 h and viability assessed after 72h. […] The amastigote growth was assessed 24 h after the last drug addition, on 200 cells in Giemsa stained coverslips and expressed as phagocytic index = percent of infected macrophages x average number of intracellular amastigotes. […] All experiments with mice were reviewed and approved by the Animal Care and Use Committee of the Instituto de Biofísica Carlos Chagas Fo.-UFRJ (CAUAP-CONCEA, Brazil, IMPPG-016) and were performed according to the guidelines of the National Institutes of Health, USA. We made all efforts in order to minimize animal suffering.

Series [6] deals with intracellular amastigotes of L. (L.) infantum chagasi. As to the kind of experiment: Replication of intracellular amastigotes in infected peritoneal macrophages (phagocytic index). It counts as cell-based, Leishmania (L.) infantum chagasi. The settings on record: for EC50: Leishmania infantum, Peritoneal macrophage, read-out: EC50 (CI 95%); for decrease of intracellular amastigote parasite load: low micromolar concentrations, single to daily protocol. As to the method: […] […] The amastigote growth was assessed 24 h after the last drug addition, on 200 cells in Giemsa stained coverslips and expressed as phagocytic index = percent of infected macrophages x average number of intracellular amastigotes. […] All experiments with mice were reviewed and approved by the Animal Care and Use Committee of the Instituto de Biofísica Carlos Chagas Fo.-UFRJ (CAUAP-CONCEA, Brazil, IMPPG-016) and were performed according to the guidelines of the National Institutes of Health, USA. We made all efforts in order to minimize animal suffering.

The subject of series [7] is Nucleoside hydrolase NH36 of L. (L.) donovani. It counts as biochemical, Leishmania (L.) donovani. The settings on record: substrate of NH36; for k cat /K m: catalytic efficiency; for K m / k cat: 25°C, 50 mM Hepes pH 7.4. As to the method:
as §1
Steady-state kinetic rates for NH36 were determined on the substrates inosine, guanosine, adenosine, uridine and cytidine. Hypoxanthine and adenine formation were coupled to xanthine oxidase (12.9 mM^-1 cm^-1 at 293 nm and 15.2 mM^-1 cm^-1 at 305 nm, respectively), and the others were followed by direct uv absorbance changes resulting from cleavage of the N-ribosidic bond. Reaction mixtures contained 50 mM Hepes (pH 7.4), 100 mM NaCl and 5 mM of DTT. One unit, and 0.1 unit of xanthine oxidase (XOD) were used as the coupling enzyme to the adenosine and inosine assays, respectively. Spectral changes for hydrolysis of guanosine, uridine and cytidine were 5.4 mM^-1 cm^-1 at 257 nm,1.8 mM^-1 cm^-1 at 280 nm and 1.8 mM^-1 cm^-1 at 288 nm, respectively. Variable concentrations of substrate and appropriate amounts of purified NH36 were added in all assays. The hydrolysis of nucleosides to bases and ribose was followed by continuous recording of optical absorbance after addition of the enzyme, in a CARY 300 UV-visible spectrophotometer. Control rates with no enzyme addition were subtracted from initial rates. Reactions with substrates were conducted at 25°C using 1 cm path length cuvettes containing 1 mL reaction volumes. Kinetic parameters of NH36 were obtained by fitting initial rates to the Michaelis−Menten equation using GraFit 5 (Erithacus Software).

Series [8] relates to nucleoside hydrolase from Leishmania (L.) donovani. On the set-up: method as in PMID 11738828. The settings on record: NH cloned in pET-22; cited from earlier work.
The next series concerns NH of L. (L.) major. Also on record: method as in PMID 10409664. The settings on record: ref 13; cited from earlier work.
Where [9] appears, read: 10 μM added daily at 0, 24 and 48 h.
The mark [10] stands for this setting: single 10 μM dose at 0 h, compared to untreated controls.

By Ki is commonly meant the equilibrium dissociation constant of an inhibitor or competing ligand from its target. Lower therefore signals tighter binding. As usually defined, the IC50 is the concentration at which inhibition is half-maximal. What is called inhibition is the relative decrease from the control value, in per cent. The term EC50 denotes the concentration giving half of the maximal effect. In turn, `O=c1[nH]cnc2c(CNC(CO)CO)c[nH]c12` [SMIH] showed a Ki in series [1] of more than 5 µM. Further, the IC50 was 1 nM in [2] (Leishmania infantum, drugs added at 0, 24 and 48 h, after 48h, read-out: IC50 on promastigote growth, daily addition); less than 0.01 nM in series [2] (Leishmania infantum, drugs added at 0, 24 and 48 h, at 72 and 96 h, read-out: IC50 on promastigote growth, daily addition); 8 nM in series [2] (Leishmania infantum, single addition at 0 h, evaluated after 48 hours, 26°C, read-out: IC50 (CI 95%) on L. (L.) infantum chagasi promastigotes in vitro growth); 0.007 µM in [3] (single addition at 0 h, evaluated after 48 hours, 26°C). For the same compound, the inhibition at 0.05 µM in series [2] (Leishmania infantum, 50 nM, after 96 h of culture, read-out: percent inhibition on L. (L.) infantum chagasi promastigote growth) was 99%; in series [3] (50 nM, after 96 h of culture, read-out: percent growth inhibition on L. (L.) amazonensis), 61%. The “reduction of the IC50 by daily addition compared to single addition” value in series [2] (daily addition (0, 24, 48 h) vs single addition (Table 2), 48 h) came out at 88%. Besides, the inhibition at 500 µM in series [3] (500 μM, after 96 h of culture) amounted to 71%. Moreover, in series [4], the “effect on cellular ultrastructure of promastigotes” value is “complete alteration of their cellular morphology with intense cytoplasm vacuolization, enlarged vesicles and alterations in the kinetoplasts”. For the same compound, the CC50 at 48 h in series [5] (peritoneal macrophages) is 800 µM. Further, the “reduction in the number of intracellular amastigotes” value in [6] (setting [9]) stood at 95%; in series [6] (setting [10]), 70%. Further, the EC50 in [6] (drugs (0.5–10 μM) added at 0 h, incubation 24 h, linear interpolation) was found to be 7.1 µM. The “decrease of intracellular amastigote parasite load” value in series [6] was 74–95%.

For the compound `O=c1[nH]cnc2c1ncn2[C@@H]1O[C@H](CO)[C@@H](O)[C@H]1O` [Inosine], in series [7], the “k cat /K m” value stood at 31800 M⁻¹ s⁻¹, the K m is 340 ± 30 µM and the k cat is reported as 10.8 ± 0.3 s ^-1. In addition, the k cat in series [8] was 7.6 s⁻¹. Moreover, in the series on NH of L. (L.) major, the k cat is 119 s⁻¹.

`O=c1[nH]cnc2c([C@@H]3N[C@H](CO)[C@@H](O)[C@H]3O)c[nH]c12` [IH] came in with a Ki in series [1] of 0.019 µM. The IC50 was 30600 nM in series [2] (Leishmania infantum, read-out: IC50 (CI 95%) on L. (L.) infantum chagasi promastigotes in vitro growth, single addition at 0 h, evaluated after 48 hours, 26°C); 6700 nM in series [2] (Leishmania infantum, read-out: IC50 on promastigote growth, daily addition, drugs added at 0, 24 and 48 h, after 48h); less than 50 nM in series [2] (Leishmania infantum, read-out: IC50 on promastigote growth, daily addition, drugs added at 0, 24 and 48 h, at 72 and 96 h); 49.7 µM in series [3]. Further, the inhibition at 500 µM in [3] (96 h) is 71%. Besides, the “effect on cellular ultrastructure of promastigotes” value in series [4] is “alterations and swelling of kinetoplasts”. The same compound had a CC50 at 48 h in series [5] of 950 µM. The “reduction in the number of intracellular amastigotes” value in series [6] (setting [9]) is 95%; in series [6] (setting [10]), 70%. In series [6], the EC50 was found to be 3.69 µM. For the same compound, the “decrease of intracellular amastigote parasite load” value in series [6] is given as 74–95%.

For `O=c1ccn([C@@H]2O[C@H](CO)[C@@H](O)[C@H]2O)c(=O)[nH]1` [Uridine], in [7], the “k cat /K m” value came to 16000 M⁻¹ s⁻¹, the K m is on record as 2,100 ± 561 μM and the k cat is on record as 34.3 ± 4.2 s ^-1. Further, in [8], the k cat is 9.5 s⁻¹. Besides, in the series with NH of L. (L.) major, the k cat was 32 s⁻¹.
